According to US20200392158A1, “INHIBITORS OF LEUCINE RICH REPEAT KINASE 2” (GLAXOSMITHKLINE INTELLECTUAL PROPERTY DEVELOPMENT LIMITED, priority 2017, published 2020):

Key:
[1] = molecular target: T1, LRRK2 kinase in SH-SY5Y cells over-expressing recombinant full length LRRK2 (Homo sapiens, UniProt Q5S007); assay: Recombinant cellular LRRK2 AlphaScreen assay (LRRK2 Ser935 phosphorylation); assay type: cell-based; conditions: 60 min
T1 construct: A BacMam virus expressing full length recombinant LRRK2 was purchased from Invitrogen; host or cells: SH-SY5Y human neuroblastoma cells transduced with BacMam LRRK2 virus
T1 sequence (Q5S007 whole entry): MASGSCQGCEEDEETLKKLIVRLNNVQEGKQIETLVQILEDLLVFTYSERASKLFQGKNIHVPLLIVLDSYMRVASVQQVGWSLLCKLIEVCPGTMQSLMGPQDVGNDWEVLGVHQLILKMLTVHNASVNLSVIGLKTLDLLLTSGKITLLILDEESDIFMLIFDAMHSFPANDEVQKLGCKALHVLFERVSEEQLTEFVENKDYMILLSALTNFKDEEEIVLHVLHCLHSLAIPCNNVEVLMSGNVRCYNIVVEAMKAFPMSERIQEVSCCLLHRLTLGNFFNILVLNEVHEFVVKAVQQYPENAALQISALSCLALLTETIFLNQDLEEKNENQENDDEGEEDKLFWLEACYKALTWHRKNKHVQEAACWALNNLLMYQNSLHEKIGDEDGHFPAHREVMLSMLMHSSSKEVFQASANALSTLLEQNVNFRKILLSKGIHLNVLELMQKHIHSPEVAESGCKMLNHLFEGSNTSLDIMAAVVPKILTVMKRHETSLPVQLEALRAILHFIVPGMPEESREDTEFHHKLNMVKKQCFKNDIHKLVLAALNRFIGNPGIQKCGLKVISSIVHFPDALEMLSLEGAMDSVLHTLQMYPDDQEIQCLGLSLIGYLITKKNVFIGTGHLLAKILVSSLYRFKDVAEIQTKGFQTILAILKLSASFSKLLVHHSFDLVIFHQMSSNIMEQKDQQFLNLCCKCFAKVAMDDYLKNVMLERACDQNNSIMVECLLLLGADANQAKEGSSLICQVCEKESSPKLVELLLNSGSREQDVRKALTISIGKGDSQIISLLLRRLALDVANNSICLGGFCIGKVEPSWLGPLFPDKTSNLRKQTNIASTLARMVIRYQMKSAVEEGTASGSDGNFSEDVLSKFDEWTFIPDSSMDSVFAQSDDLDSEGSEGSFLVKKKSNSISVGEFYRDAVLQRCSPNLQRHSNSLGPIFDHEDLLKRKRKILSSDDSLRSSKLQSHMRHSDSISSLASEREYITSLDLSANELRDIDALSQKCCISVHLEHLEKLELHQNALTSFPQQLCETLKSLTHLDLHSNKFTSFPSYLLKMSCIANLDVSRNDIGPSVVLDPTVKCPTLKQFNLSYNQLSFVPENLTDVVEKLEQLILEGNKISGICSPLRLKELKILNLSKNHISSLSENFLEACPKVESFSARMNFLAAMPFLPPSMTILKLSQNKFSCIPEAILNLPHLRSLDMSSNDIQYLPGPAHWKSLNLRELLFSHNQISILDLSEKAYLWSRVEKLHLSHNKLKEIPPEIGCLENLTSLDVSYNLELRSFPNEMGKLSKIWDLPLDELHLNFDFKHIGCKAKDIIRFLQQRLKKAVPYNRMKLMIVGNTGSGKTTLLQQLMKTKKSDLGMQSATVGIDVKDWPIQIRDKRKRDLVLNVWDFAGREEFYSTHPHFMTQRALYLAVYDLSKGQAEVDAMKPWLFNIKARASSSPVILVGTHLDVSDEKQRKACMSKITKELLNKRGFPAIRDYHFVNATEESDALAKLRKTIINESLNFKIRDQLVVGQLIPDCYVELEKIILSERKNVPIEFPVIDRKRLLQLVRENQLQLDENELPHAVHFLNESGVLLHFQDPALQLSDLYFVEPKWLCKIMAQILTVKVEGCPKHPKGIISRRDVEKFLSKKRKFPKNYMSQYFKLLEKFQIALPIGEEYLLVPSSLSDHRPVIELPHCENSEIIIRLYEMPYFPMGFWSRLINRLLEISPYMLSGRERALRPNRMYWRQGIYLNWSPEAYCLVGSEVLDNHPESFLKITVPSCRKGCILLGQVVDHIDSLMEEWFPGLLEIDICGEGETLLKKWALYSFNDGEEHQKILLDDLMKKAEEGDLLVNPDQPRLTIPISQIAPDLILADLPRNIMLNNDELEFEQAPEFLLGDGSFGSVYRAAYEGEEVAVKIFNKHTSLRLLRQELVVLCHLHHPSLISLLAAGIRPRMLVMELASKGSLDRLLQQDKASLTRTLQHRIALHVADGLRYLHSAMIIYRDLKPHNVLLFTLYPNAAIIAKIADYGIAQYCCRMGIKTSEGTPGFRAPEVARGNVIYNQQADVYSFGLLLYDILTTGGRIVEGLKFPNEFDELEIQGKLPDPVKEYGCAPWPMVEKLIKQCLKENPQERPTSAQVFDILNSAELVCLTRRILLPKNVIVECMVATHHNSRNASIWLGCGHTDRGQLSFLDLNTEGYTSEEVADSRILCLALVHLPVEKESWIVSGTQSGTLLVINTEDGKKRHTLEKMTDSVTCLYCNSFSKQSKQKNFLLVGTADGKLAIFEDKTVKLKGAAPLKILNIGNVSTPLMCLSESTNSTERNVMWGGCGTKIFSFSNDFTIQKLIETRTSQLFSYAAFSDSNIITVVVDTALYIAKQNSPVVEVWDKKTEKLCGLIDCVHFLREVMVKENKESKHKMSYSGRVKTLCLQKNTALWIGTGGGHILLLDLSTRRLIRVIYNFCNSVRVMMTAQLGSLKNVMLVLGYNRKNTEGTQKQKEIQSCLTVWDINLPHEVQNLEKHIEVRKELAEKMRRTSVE
Summary of the method: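 SH-SY5Y cells transduced with BacMam full-length LRRK2 (MOI 50) for 24 h, then treated 60 min at 37 °C with compound (11-point 1:4 series, top 10 uM, 0.1% DMSO). Lysates probed by AlphaScreen for pSer935 vs total LRRK2; values fitted to a sigmoidal dose-response model.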

[2] = molecular target: T2, full length G2019 human LRRK2 (Homo sapiens, UniProt Q5S007, R50H); assay: Full length G2019 human LRRK2 inhibition mass spectrometry assay; assay type: biochemical; conditions: LRRKtide to phospho-LRRKtide conversion, RapidFire MS, 2 mM ATP
T2 construct: made in house; host or cells: HEK293 6E cells transduced with BacMam virus (virus generated in Sf9 cells)
T2 sequence (Q5S007 with tags, fused parts or gaps R50H): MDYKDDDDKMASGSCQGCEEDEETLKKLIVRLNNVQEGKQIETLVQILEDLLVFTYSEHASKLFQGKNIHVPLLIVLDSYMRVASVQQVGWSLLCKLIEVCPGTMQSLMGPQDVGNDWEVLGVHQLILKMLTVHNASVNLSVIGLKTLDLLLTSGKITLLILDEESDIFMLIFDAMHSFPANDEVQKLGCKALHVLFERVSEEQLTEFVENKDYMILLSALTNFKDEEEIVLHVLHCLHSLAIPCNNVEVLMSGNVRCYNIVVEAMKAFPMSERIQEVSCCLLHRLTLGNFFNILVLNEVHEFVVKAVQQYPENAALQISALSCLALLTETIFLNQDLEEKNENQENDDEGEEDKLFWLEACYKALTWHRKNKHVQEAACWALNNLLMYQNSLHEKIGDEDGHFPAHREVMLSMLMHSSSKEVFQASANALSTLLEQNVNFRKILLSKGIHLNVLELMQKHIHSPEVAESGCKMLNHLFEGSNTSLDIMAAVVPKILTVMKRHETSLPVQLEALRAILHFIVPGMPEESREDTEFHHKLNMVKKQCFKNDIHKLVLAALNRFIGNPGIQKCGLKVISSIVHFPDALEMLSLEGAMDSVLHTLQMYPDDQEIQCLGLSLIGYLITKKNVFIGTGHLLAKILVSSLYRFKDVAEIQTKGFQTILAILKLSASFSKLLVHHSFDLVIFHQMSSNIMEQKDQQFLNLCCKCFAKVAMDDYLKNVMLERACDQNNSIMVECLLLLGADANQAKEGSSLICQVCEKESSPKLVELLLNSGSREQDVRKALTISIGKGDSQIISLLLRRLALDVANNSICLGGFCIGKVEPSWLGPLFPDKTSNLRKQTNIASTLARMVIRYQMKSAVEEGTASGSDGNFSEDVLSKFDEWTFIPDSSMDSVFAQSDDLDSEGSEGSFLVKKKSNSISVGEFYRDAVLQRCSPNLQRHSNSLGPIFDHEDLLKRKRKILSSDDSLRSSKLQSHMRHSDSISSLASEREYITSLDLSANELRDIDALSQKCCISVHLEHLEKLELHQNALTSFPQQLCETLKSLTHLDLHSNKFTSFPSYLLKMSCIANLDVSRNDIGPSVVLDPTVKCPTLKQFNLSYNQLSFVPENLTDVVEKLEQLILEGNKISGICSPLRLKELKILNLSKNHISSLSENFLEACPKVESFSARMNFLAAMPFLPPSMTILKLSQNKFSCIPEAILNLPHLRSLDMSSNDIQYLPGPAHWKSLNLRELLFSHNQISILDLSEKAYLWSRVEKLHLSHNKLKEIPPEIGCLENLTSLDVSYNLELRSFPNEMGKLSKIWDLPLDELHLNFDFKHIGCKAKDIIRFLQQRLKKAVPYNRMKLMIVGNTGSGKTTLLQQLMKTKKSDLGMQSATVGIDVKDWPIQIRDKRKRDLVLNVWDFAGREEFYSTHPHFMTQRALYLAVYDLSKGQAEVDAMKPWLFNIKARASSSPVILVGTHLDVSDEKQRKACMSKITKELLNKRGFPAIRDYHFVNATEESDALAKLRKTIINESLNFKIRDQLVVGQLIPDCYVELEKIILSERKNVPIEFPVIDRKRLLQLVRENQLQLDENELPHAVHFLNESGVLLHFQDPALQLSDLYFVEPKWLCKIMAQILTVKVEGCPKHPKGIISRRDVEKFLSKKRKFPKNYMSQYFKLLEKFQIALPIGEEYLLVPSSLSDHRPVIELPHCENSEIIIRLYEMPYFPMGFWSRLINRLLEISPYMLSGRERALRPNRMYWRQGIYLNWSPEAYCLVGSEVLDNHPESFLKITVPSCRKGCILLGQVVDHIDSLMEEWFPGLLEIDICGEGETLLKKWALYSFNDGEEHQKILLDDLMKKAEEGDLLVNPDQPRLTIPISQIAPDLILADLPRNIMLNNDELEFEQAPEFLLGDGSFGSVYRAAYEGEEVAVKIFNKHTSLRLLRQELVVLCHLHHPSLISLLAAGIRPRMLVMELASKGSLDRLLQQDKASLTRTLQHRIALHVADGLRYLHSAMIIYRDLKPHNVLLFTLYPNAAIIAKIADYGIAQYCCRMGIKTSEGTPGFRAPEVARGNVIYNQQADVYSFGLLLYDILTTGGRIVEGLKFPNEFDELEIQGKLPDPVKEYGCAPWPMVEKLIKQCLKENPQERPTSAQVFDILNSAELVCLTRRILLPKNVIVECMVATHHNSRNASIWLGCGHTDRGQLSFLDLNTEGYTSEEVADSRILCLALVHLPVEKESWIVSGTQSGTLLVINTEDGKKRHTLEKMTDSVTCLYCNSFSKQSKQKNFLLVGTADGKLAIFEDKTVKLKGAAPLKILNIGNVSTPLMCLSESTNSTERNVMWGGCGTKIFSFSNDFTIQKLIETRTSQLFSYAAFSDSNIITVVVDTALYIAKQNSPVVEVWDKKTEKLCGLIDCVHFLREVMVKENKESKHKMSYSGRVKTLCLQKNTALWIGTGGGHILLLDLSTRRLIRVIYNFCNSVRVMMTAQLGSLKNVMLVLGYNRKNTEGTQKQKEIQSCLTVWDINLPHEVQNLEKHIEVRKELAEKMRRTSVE
Summary of the method: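 Purified full-length Flag-tagged G2019 LRRK2, ~25 nM, with 25 μM LRRKtide and 2 mM ATP in 50 mM Hepes pH 7.2, 10 mM MgCl2, 150 mM NaCl, 1 h at room temperature. Quenched with formic acid; phospho- and unphosphorylated LRRKtide measured by RapidFire MS. pIC50 from 4-parameter fit of % conversion, 11 points, top 100 μM.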

SMILES | IC50 [1] [nM] | IC50 [2] [nM]
Cc1c2c(nn1CC(C)(C)O)OCCC(C)Nc1nc(ncc1Cl)N2 (single isomer, unassigned) [E265, 1-{14-Chloro-4,11-dimethyl-8-oxa-2,5,6,12,16,17-hexaazatricyclo[11.3.1.0^3,7]heptadeca-1(17),3,6,13,15-pentaen-5-yl}-2-methylpropan-2-ol] | ≤ 100 | ≤ 100
COC1CNc2nc(ncc2Cl)Nc2c(nn(C3COC3)c2C)OC1 (single isomer, unassigned) [E270, 14-Chloro-10-methoxy-4-methyl-5-(oxetan-3-yl)-8-oxa-2,5,6,12,16,17-hexaazatricyclo[11.3.1.0^3,7]heptadeca-1(16),3,6,13(17),14-pentaene] | ≤ 100 | ≤ 100
COC1CNc2nc(ncc2Cl)Nc2c(nn(CC3CCOCC3)c2C)OC1 (single isomer, unassigned) [E274, 14-Chloro-10-methoxy-4-methyl-5-(oxan-4-ylmethyl)-8-oxa-2,5,6,12,16,17-hexaazatricyclo[11.3.1.0^3,7] heptadeca-1(16),3,6,13(17),14-pentaene] | ≤ 100 | ≤ 100
COC1CNc2nc(ncc2Cl)Nc2c(nn(C3CCC(C(F)(F)F)CC3)c2C)OC1 (single isomer, unassigned) [E278, 14-Chloro-10-methoxy-4-methyl-5-[4-(trifluoromethyl)cyclohexyl]-8-oxa-2,5,6,12,16,17-hexaazatricyclo [11.3. 1.0^3,7]heptadeca-1(16),3,6,13(17),14-pentaene] | ≤ 100 | ≤ 100
Cc1c2c(nn1C1CCOCC1)OCCC(C)Nc1nc(ncc1C(F)(F)F)N2 (single isomer, unassigned) [E291, 4,11-Dimethyl-5-(oxan-4-yl)-14-(trifluoromethyl) -8-oxa-2,5,6,12,16,17-hexaazatricyclo[11.3.1.0^3,7]heptadeca-1(16),3,6,13(17),14-pentaene] | ≤ 100 | ≤ 100
Cc1c2c(nn1C1COCCC1(F)F)OCC[C@@H](C)Nc1nc(ncc1Cl)N2 (single isomer, unassigned) [E305] | ≤ 100 | ≤ 100
Cc1c2c(nn1C1CCCOC1)OCC(C)CNc1nc(ncc1Cl)N2 (single isomer, unassigned) [E306, 14-Chloro-4,10-dimethyl-5-(oxan-3-yl)-8-oxa-2,5,6,12,16,17-hexaazatricyclo[11.3.1.0^3,7]heptadeca-1(16),3,6, 13(17),14-pentaene] | ≤ 100 | ≤ 100
COCC1CCOc2nn(C3CCOCC3F)c(C)c2Nc2ncc(Cl)c(n2)N1 (single isomer, unassigned) [E351, 14-Chloro-5-(3-fluorooxan-4-yl)-11-(methoxymethyl)-4-methyl-8-oxa-2,5,6,12,16,17-hexaazatricyclo [11.3. 1.0^3,7]heptadeca-1(16),3,6,13(17),14-pentaene] | ≤ 100 | ≤ 100
Cc1c2c(nn1C1CN(C3COC3)CCC1F)OCC[C@@H](C)Nc1nc(ncc1Cl)N2 (single isomer, unassigned) [E403] | ≤ 100 | ≤ 100
Cc1c2c(nn1C1CCOCC1(C)C)OCC[C@@H](C)Nc1nc(ncc1Cl)N2 (single isomer, unassigned) [E422] | ≤ 100 | ≤ 100
C[C@@H]1CCOc2nn(C3CCN(C4COC4)CC3(F)F)c(Cl)c2Nc2ncc(Cl)c(n2)N1 (single isomer, unassigned) [E444] | ≤ 100 | ≤ 100
Cc1c2c(nn1C1CC(N3CC4CC3CO4)C1)OCC[C@@H](C)Nc1nc(ncc1Cl)N2 (stereo in doubt) [E318, (11R)-14-Chloro-4,11-dimethyl-5-{3-[(1R,4R)-2-oxa-5-azabicyclo[2.2.1]heptan-5-yl]cyclobutyl}-8-oxa-2,5,6,12,16,17-hexaazatricyclo[11.3.1.0^3,7]heptadeca-1(16),3,6,13(17),14-pentaene] | ≤ 100 | ≤ 100
Cc1c2c(nn1C1COC1)OCC[C@@H](C)Nc1nc(ncc1Cl)N2 [E52, (11R)-14-chloro-4,11-dimethyl-5-(oxetan-3-yl)-8-oxa-2,5,6,12,16,17-hexaazatricyclo [11.3.1.0^3,7]heptadeca-1(16),3,6,13(17),14-pentaene] | ≤ 100 | ≤ 100

Results, then the compound that gave them:

IC50 [1] [nM] | IC50 [2] [nM] | SMILES
≤ 100 | ≤ 100 | CCOC1CNc2nc(ncc2Cl)Nc2c(nn(C3CCOCC3)c2C)OC1 (single isomer, unassigned) [E287, 14-Chloro-10-ethoxy-4-methyl-5-(oxan-4-yl)-8-oxa-2,5,6,12,16,17-hexaazatricyclo[11.3.1.0^3,7]heptadeca-1(16),3,6,13(17),14-pentaene]
≤ 100 | ≤ 100 | Cc1c2c(nn1C1CCOCC1)OCCC(C1CC1)Nc1nc(ncc1Cl)N2 (single isomer, unassigned) [E293, 14-Chloro-11-cyclopropyl-4-methyl-5-(oxan-4-yl)-8-oxa-2,5,6,12,16,17-hexaazatricyclo[11.3.1.0^3,7]heptadeca-1(16),3,6,13(17),14-pentaene]
≤ 100 | ≤ 100 | Cc1c2c(nn1C1COCCC1(F)F)OCCCNc1nc(ncc1Cl)N2 (single isomer, unassigned) [E302, 14-Chloro-5-(4,4-difluorooxan-3-yl)-4-methyl-8-oxa-2,5,6,12,16,17-hexaazatricyclo[11.3.1.0^3,7]heptadeca-1(16),3,6,13(17),14-pentaene]
≤ 100 | ≤ 100 | Cc1c2c(nn1C1CCC(N3CCOCC3)C1)OCCCNc1nc(ncc1Cl)N2 (single isomer, unassigned) [E369, 14-Chloro-4-methyl-5-[3-(morpholin-4-yl)cyclopentyl]-8-oxa-2,5,6,12,16,17-hexaazatricyclo[11.3.1.0^3,7] heptadeca-1(16),3,6,13(17),14-pentaene]
≤ 100 | ≤ 100 | Cc1c2c(nn1C1CCN(C3COC3)CC1(F)F)OCCCNc1nc(ncc1Cl)N2 (single isomer, unassigned) [E406, 14-Chloro-5-[3,3-difluoro-1-(oxetan-3-yl)piperidin-4-yl]-4-methyl-8-oxa-2,5,6,12,16,17-hexaazatricyclo[11.3.1.0^3,7]heptadeca-1(16),3,6,13(17),14-pentaene]
≤ 100 | ≤ 100 | Cc1c2c(nn1C1CCOCC1(F)F)OCCCNc1nc(ncc1Cl)N2 (single isomer, unassigned) [E415]
≤ 100 | ≤ 100 | Cc1c2c(nn1CCN1C[C@@H]3C[C@H]1CO3)OCCCNc1nc(ncc1Cl)N2 (stereo in doubt) [E221, 14-Chloro-4-methyl-5-{2-[(1S,4S)-2-oxa-5-azabicyclo[2.2.1]heptan-5-yl]ethyl}-8-oxa-2,5,6,12,16,17-hexaazatricyclo [11.3.1.0^3,7]heptadeca-1(16),3,6,13(17),14-pentaene]
≤ 100 | ≤ 100 | Cc1c2c(nn1C1CCOCC1)OCCCNc1nc(ncc1Cl)N2 [E1, 14-Chloro-4-methyl-5-(oxan-4-yl)-8-oxa-2,5,6,12,16,17-hexaazatricyclo [11.3.1.0^3,7]heptadeca-1(16),3,6,13(17),14-pentaene]
≤ 100 | ≤ 100 | Cc1c2c(nn1C1CCOCC1)OCCC(C)Nc1nc(ncc1Cl)N2 (centres unmarked) [E5, 14-Chloro-4,11-dimethyl-5-(oxan-4-yl)-8-oxa-2,5,6,12,16,17-hexaazatricyclo [11.3.1.0^3,7]heptadeca-1(16),3,6,13(17),14-pentaene]
≤ 100 | ≤ 100 | Cc1c2c(nn1C1CCOCC1)OCC[C@@H](C)Nc1nc(ncc1Cl)N2 [E6, (11R)-14-Chloro-4,11-dimethyl-5-(oxan-4-yl)-8-oxa-2,5,6,12,16,17-hexaazatricyclo [11.3.1.0^3,7]heptadeca-1(16),3,6,13(17),14-pentaene]
≤ 100 | ≤ 100 | Cc1c2c(nn1C1COC1)OCCCNc1nc(ncc1Cl)N2 [E12, 14-Chloro-4-methyl-5-(oxetan-3-yl)-8-oxa-2,5,6,12,16,17-hexaazatricyclo[11.3.1.0^3,7]heptadeca-1(16),3,6,13(17),14-pentaene]
≤ 100 | ≤ 100 | Clc1cnc2nc1NCCCOc1nn(C3CCOCC3)c(Cl)c1N2 [E13, 4,14-Dichloro-5-(oxan-4-yl)-8-oxa-2,5,6,12,16,17-hexaazatricyclo[11.3.1.0^3,7]heptadeca-1(16),3,6,13(17),14-pentaene]
≤ 100 | ≤ 100 | Cc1c2c(nn1C1CC(N3CCOCC3)C1)OCCCNc1nc(ncc1Cl)N2 (centres unmarked) [E45, 14-Chloro-4-methyl-5-[3-(morpholin-4-yl)cyclobutyl]-8-oxa-2,5,6,12,16,17-hexaaza tricyclo[11.3.1.0^3,7]heptadeca-1(16),3,6,13(17),14-pentaene]
≤ 100 | ≤ 10000 | Cc1c2c(nn1[C@H]1CCOC1)OCC[C@@H](C)Nc1nc(ncc1Cl)N2 [E46, (11R)-14-chloro-4,11-dimethyl-5-[(3S)-oxolan-3-yl]-8-oxa-2,5,6,12,16,17-hexaaza tricyclo [11.3.1.0^3,7]heptadeca-1(16),3,6,13(17),14-pentaene]
≤ 100 | ≤ 100 | Cc1c2c(nn1[C@@H]1CCOC1)OCC[C@@H](C)Nc1nc(ncc1Cl)N2 [E47, (11R)-14-chloro-4,11-dimethyl-5-[(3R)-oxolan-3-yl]-8-oxa-2,5,6,12,16,17-hexaaza tricyclo [11.3.1.0^3,7]heptadeca-1(16),3,6,13(17),14-pentaene]
